Experimental findings from US9433621B2, “Substituted pyridine and pyrimidine derivatives and their use in treating viral infections” (Merck Sharp & Dohme Corp., priority 2010, dated 2016) are described below.

Read-outs that look alike come from different tables or passages of the source. A value given as a limit tells only on which side of the number the result lay.

The test relates to HCV replicon. Briefly: Cell-Based HCV Replicon Assay. To be noted: Hepatitis C virus, 72 h. As for the experimental part:
Cell-Based HCV Replicon Assay
To measure cell-based anti-HCV activity of the compounds of the present invention, replicon cells were seeded at 5000 cells/well in 96-well collagen I-coated Nunc plates in the presence of the compound of the invention. Various concentrations of a compound of the invention, typically in 10 serial 2-fold dilutions, were added to the assay mixture, the starting concentration of the compound ranging from 25 μM to 1 μM. The final concentration of DMSO was 0.5%, fetal bovine serum was 10%, in the assay media. Cells were harvested on day 3 by the addition of 1× cell lysis buffer (Ambion cat #8721). The replicon RNA level was measured using real time PCR (Taqman assay). The amplicon was located in 5B. The PCR primers were: 5B.2F, ATGGACAGGCGCCCTGA; 5B.2R, […]; the probe sequence was FAM-labeled CACGCCATGCGCTGCGG. GAPDH RNA was used as endogenous control and was amplified in the same reaction as NS5B (multiplex PCR) using primers and VIC-labeled probe recommended by the manufacturer (PE Applied Biosystem). The real-time RT-PCR reactions were run on ABI PRISM® 7900HT Sequence Detection System using the following program: 48′C for 30 min, 95′C for 10 min, 40 cycles of 95′C for 15 sec, 60′C for 1 min. The ΔCT values (CT5B-CTGAPDH) were plotted against the concentration of test compound and fitted to the sigmoid dose-response model using Graph Pad PRISM® software. EC50 was defined as the concentration of inhibitor necessary to achieve ΔCT=1 over the projected baseline; EC90 the concentration necessary to achieve ΔCT=3.2 over the baseline. Alternatively, to quantitate the absolute amount of replicon RNA, a standard curve was established by including serially diluted T7 transcripts of replicon RNA in the Taqman assay. All Taqman reagents were from PE Applied Biosystems. Such an assay procedure was described in detail in e.g. Malcolm et al., Antimicrobial Agents and Chemotherapy 50: 1013-1020 (2006).
HCV Replicon assay data for compounds of the invention that were tested were obtained using the above method.
In general terms: In antiviral work, replicon cells carry a viral genome segment that copies itself.

Where [1] appears, read: Table IV, replicon cells, day 3, real time PCR, EC90 = concentration for ΔCT=3.2 over baseline, read-out: EC90.
Where [2] appears, read: Table V, class codes, replicon cells, day 3, real time PCR, EC90 = concentration for ΔCT=3.2 over baseline, read-out: EC90 (uM) range.
Where [3] appears, read: Table V, cells printed as numeric bound instead of code, replicon cells, day 3, real time PCR, read-out: EC90 (uM) range.

One may read the EC90 as the concentration needed for an effect of 90%.

In the case of `Cc1nc(NCC(F)(F)C(F)(F)F)nc(N[C@@H]2C[C@H](C(C)(C)O)[C@@H](O)[C@H]2O)c1-c1nc2c(C)nccc2s1` [Example 4346], the EC90 under setting [1] stood at 0.043 µM.
The same measure, in the same setting: the result for `Cc1nc(N[C@H](C)c2ccc(OC(F)(F)F)cc2)nc(N[C@@H]2C[C@H](CO)[C@@H](O)[C@H]2O)c1-c1nc2c(N)nccc2s1` [Example 4413] reads 0.121 µM; that for `Cc1nc(NCc2c(F)cccc2F)nc(N[C@@H]2C[C@H](C(C)(C)O)[C@@H](O)[C@H]2O)c1-c1nc2c(N)nccc2s1` [Example 4443], 0.055 µM.
For `Cc1nc(NC[C@H]2C[C@@H](c3ccccc3)C2)nc(N[C@@H]2C[C@H](CO)[C@@H](O)[C@H]2O)c1-c1nc2cnccc2s1` [Example 4512], the EC90 under setting [1] is 0.019 µM.
Same read-out and setting: the result for `Cc1nc(NC[C@H]2C[C@H](c3ccccc3)C2)nc(N[C@@H]2C[C@H](CO)[C@@H](O)[C@H]2O)c1-c1nc2cnccc2s1` [Example 4513] reads 0.016 µM; that for `CCc1cc2sc(-c3c(C)nc(NCC(F)(F)F)nc3N[C@@H]3C[C@H](CO)[C@@H](O)[C@H]3O)nc2c(CC)n1` [Example 4706], 0.045 µM.
Consider `Cc1nc(NCc2ccccc2F)nc(N[C@@H]2C[C@H](CO)[C@@H](O)[C@H]2O)c1-c1nc2c(C3CC3)nccc2s1` [Example 4901], for which the EC90 under setting [2] is under 0.5 µM.
The same measure, in the same setting: the result for `Cc1nc(NCc2cccc(F)c2)nc(N[C@@H]2C[C@H](CO)[C@@H](O)[C@H]2O)c1-c1nc2c(C3CC3)nccc2s1` [Example 4902] reads under 0.5 µM; that for `CO[C@@H]1[C@@H](CO)C[C@@H](Nc2nc(NCC3CC3)nc(C)c2-c2nc3c(C)nccc3s2)[C@@H]1O` [Example 4903], under 0.5 µM; that for `CO[C@@H]1[C@@H](CO)C[C@@H](Nc2nc(N[C@H](C)c3ccc(OC(F)(F)F)cc3)nc(C)c2-c2nc3c(C)nccc3s2)[C@@H]1O` [Example 4904], under 0.5 µM.
For `CO[C@@H]1[C@@H](CO)C[C@@H](Nc2nc(NCC(F)(F)F)nc(C)c2-c2nc3c(C)nccc3s2)[C@@H]1O` [Example 4905], the EC90 under setting [2] was under 0.5 µM.
In the case of `CNc1nc(C)c(-c2nc3c(C)nccc3s2)c(N[C@@H]2C[C@H](CO)[C@@H](OC)[C@H]2O)n1` [Example 4906], the EC90 under setting [2] is 0.5 to 5 µM.
With `CO[C@@H]1[C@@H](CO)C[C@@H](Nc2nc(N)nc(C)c2-c2nc3c(C)nccc3s2)[C@@H]1O` [Example 4907], the EC90 under setting [2] is under 0.5 µM.
As for `Cc1cc2sc(-c3c(C)nc(NCc4c(F)cccc4F)nc3N[C@@H]3C[C@H](CO)[C@@H](O)[C@H]3O)nc2cn1` [Example 4908], the EC90 under setting [2] is under 0.5 µM.
The same measure, in the same setting: the result for `Cc1cc2sc(-c3c(C)nc(NCC4CC4)nc3N[C@@H]3C[C@H](CO)[C@@H](O)[C@H]3O)nc2cn1` [Example 4909] reads under 0.5 µM; that for `Cc1cc2sc(-c3c(C)nc(NCC(F)(F)F)nc3N[C@@H]3C[C@H](CO)[C@@H](O)[C@H]3O)nc2cn1` [Example 4910], under 0.5 µM; that for `CCOCCNc1nc(C)c(-c2nc3cnc(C)cc3s2)c(N[C@@H]2C[C@H](CO)[C@@H](O)[C@H]2O)n1` [Example 4911], under 0.5 µM.
Regarding `Cc1cc2sc(-c3c(C)nc(N[C@H](C)C4CCC4)nc3N[C@@H]3C[C@H](CO)[C@@H](O)[C@H]3O)nc2cn1` [Example 4912], under setting [2], the EC90 was under 0.5 µM.
On to `Cc1ccc([C@@H](C)Nc2nc(C)c(-c3nc4cnc(C)cc4s3)c(N[C@@H]3C[C@H](CO)[C@@H](O)[C@H]3O)n2)cc1` [Example 4913], for which the EC90 under setting [2] is under 0.5 µM.
Regarding `Cc1nccc2sc(-c3cnc(N[C@H](C)C4CCC4)nc3N[C@@H]3C[C@H](CO)[C@@H](O)[C@H]3O)nc12` [Example 4915], the EC90 (read-out: EC90 (uM) range) was over 1 µM.
For the molecule `COCCNc1ncc(-c2nc3c(C4CC4)nccc3s2)c(N[C@@H]2C[C@H](CS(C)(=O)=O)[C@@H](O)[C@H]2O)n1` [Example 4916], under setting [2], the EC90 was in the range of 0.5 to 5 µM.
`C[C@@H](Nc1ncc(-c2nc3c(C4CC4)nccc3s2)c(N[C@@H]2C[C@H](CS(C)(=O)=O)[C@@H](O)[C@H]2O)n1)C1CC1` [Example 4917]: the EC90 under setting [3] is over 0.2 µM.
In the case of `C[C@@H](Nc1ncc(-c2nc3c(C4CC4)nccc3s2)c(N[C@@H]2C[C@H](CS(C)(=O)=O)[C@@H](O)[C@H]2O)n1)C1CCC1` [Example 4918], the EC90 under setting [2] is under 0.5 µM.
For `CS(=O)(=O)C[C@H]1C[C@@H](Nc2nc(N)ncc2-c2nc3c(C4CC4)nccc3s2)[C@H](O)[C@@H]1O` [Example 4919], under setting [2], the EC90 was under 0.5 µM.
On to `CS(=O)(=O)C[C@H]1C[C@@H](Nc2nc(NCC3CC3)ncc2-c2nc3c(C4CC4)nccc3s2)[C@H](O)[C@@H]1O` [Example 4920], for which the EC90 under setting [2] is under 0.5 µM.
The same measure, in the same setting: the result for `C[C@@H](Nc1ncc(-c2nc3c(C4CC4)nccc3s2)c(N[C@@H]2C[C@H](CS(C)(=O)=O)[C@@H](O)[C@H]2O)n1)c1ccc(OC(F)(F)F)cc1` [Example 4921] reads 0.5 to 5 µM.
For the molecule `CS(=O)(=O)C[C@H]1C[C@@H](Nc2nc(NC3CCC3)ncc2-c2nc3c(C4CC4)nccc3s2)[C@H](O)[C@@H]1O` [Example 4922], under setting [3], the EC90 was over 0.3 µM.
For the molecule `Cc1nc(N[C@H](C)C2CC2)nc(N[C@@H]2C[C@H](C(=O)N3CCOCC3)[C@@H](O)[C@H]2O)c1-c1nc2c(C3CC3)nccc2s1` [Example 4923], under setting [2], the EC90 was under 0.5 µM.
The same measure, in the same setting: the result for `Cc1nc(NCC2CC2)nc(N[C@@H]2C[C@H](C(=O)N3CCOCC3)[C@@H](O)[C@H]2O)c1-c1nc2c(C3CC3)nccc2s1` [Example 4924] reads under 0.5 µM; that for `Cc1nc(N)nc(N[C@@H]2C[C@H](C(=O)N3CCOCC3)[C@@H](O)[C@H]2O)c1-c1nc2c(C3CC3)nccc2s1` [Example 4925], under 0.5 µM; that for `COCCNc1nc(C)c(-c2nc3c(C4CC4)nccc3s2)c(N[C@@H]2C[C@H](C(=O)Nc3nccs3)[C@@H](O)[C@H]2O)n1` [Example 4926], under 0.5 µM.
The same measure, in the same setting: the value for `Cc1nc(NCC2CC2)nc(N[C@@H]2C[C@H](C(=O)Nc3nccs3)[C@@H](O)[C@H]2O)c1-c1nc2c(C3CC3)nccc2s1` [Example 4927] was under 0.5 µM.
Regarding `Cc1nc(N[C@H](C)c2ccc(OC(F)(F)F)cc2)nc(N[C@@H]2C[C@H](C(=O)Nc3nccs3)[C@@H](O)[C@H]2O)c1-c1nc2c(C3CC3)nccc2s1` [Example 4928], the EC90 under setting [2] is under 0.5 µM.
Take `Cc1nc(N)nc(N[C@@H]2C[C@H](C(=O)NC(C)(C)C)[C@@H](O)[C@H]2O)c1-c1nc2c(C3CC3)nccc2s1` [Example 4929]: the EC90 under setting [2] was under 0.5 µM.
In the case of `COCCNc1nc(C)c(-c2nc3c(C4CC4)nccc3s2)c(N[C@@H]2C[C@H](C(=O)NC(C)(C)C)[C@@H](O)[C@H]2O)n1` [Example 4930], the EC90 under setting [2] is under 0.5 µM.
Consider `Cc1nc(NCC2CC2)nc(N[C@@H]2C[C@H](C(=O)NC(C)(C)C)[C@@H](O)[C@H]2O)c1-c1nc2c(C3CC3)nccc2s1` [Example 4931], for which the concentration for an effect of 90% (EC90) under setting [2] was under 0.5 µM.
Same read-out and setting: the value for `Cc1nc(N[C@H](C)c2ccc(F)cc2)nc(N[C@@H]2C[C@H](CO)[C@@H](O)[C@H]2O)c1-c1nc2c(C3CC3)nccc2s1` [Example 4932] was under 0.5 µM; that for `Cc1cccc([C@@H](C)Nc2nc(C)c(-c3nc4c(C5CC5)nccc4s3)c(N[C@@H]3C[C@H](CO)[C@@H](O)[C@H]3O)n2)c1` [Example 4933] was under 0.5 µM; that for `Cc1ccccc1[C@@H](C)Nc1nc(C)c(-c2nc3c(C4CC4)nccc3s2)c(N[C@@H]2C[C@H](CO)[C@@H](O)[C@H]2O)n1` [Example 4934] was under 0.5 µM.
In the case of `Cc1nccc2sc(-c3cnc(NCC4CC4)nc3N[C@@H]3C[C@H](C(C)(C)O)[C@@H](O)[C@H]3O)nc12` [Example 4935], under setting [2], the EC90 was under 0.5 µM.
On to `CCSCCNc1ncc(-c2nc3c(C)nccc3s2)c(N[C@@H]2C[C@H](C(C)(C)O)[C@@H](O)[C@H]2O)n1` [Example 4936], for which the EC90 under setting [2] was under 0.5 µM.
`Cc1nccc2sc(-c3cnc(N)nc3N[C@@H]3C[C@H](C(C)(C)O)[C@@H](O)[C@H]3O)nc12` [Example 4937]: under setting [2], the EC90 lay within 0.5 to 5 µM.
Still for that read-out and setting: the result for `COCCNc1ncc(-c2nc3c(C)nccc3s2)c(N[C@@H]2C[C@H](C(C)(C)O)[C@@H](O)[C@H]2O)n1` [Example 4938] reads under 0.5 µM; that for `CO[C@H](C)CNc1ncc(-c2nc3c(C)nccc3s2)c(N[C@@H]2C[C@H](C(C)(C)O)[C@@H](O)[C@H]2O)n1` [Example 4939], under 0.5 µM; that for `Cc1nccc2sc(-c3cnc(NCCSC(C)(C)C)nc3N[C@@H]3C[C@H](C(C)(C)O)[C@@H](O)[C@H]3O)nc12` [Example 4940], under 0.5 µM.
Still for that read-out and setting: the value for `COC[C@@H](C)Nc1ncc(-c2nc3c(C)nccc3s2)c(N[C@@H]2C[C@H](C(C)(C)O)[C@@H](O)[C@H]2O)n1` [Example 4941] was under 0.5 µM.
